Experimental data: patent US8318774B2, “Compounds involving mGluR5 receptor regulation and methods of making the compounds” (Gruenenthal GmbH, priority 2006, dated 2012)

What follows are molecules tested against T1, mGluR5 receptor (pig) (Sus scrofa, UniProt I3LUI7) (assay: Inhibition of [3H]-MPEP binding in the mGluR5 receptor binding assay (pig brain homogenate)). Details: 5 nM [3H]-MPEP, 60 min, room temperature, read-out: IC50 mGluR5 receptor (pig) [3H]-MPEP bonding.
T1 construct: 450 μg of protein from brain homogenate are incubated; from tissue; host or cells: pig brain halves without medulla, cerebellum and pons (homogenate, differential centrifugation)
Method: I. Method for Determining the Inhibition of the [^3H]-MPEP Binding in the mGluR5 Receptor Binding Assay
Pig brain homogenate is produced by the homogenisation (Polytron PT 3000, Kinematica AG, 10,000 rpm for 90 seconds) of pig brain halves without medulla, cerebellum and pons, in a buffer with pH 8.0 (30 mM Hepes, Sigma, order no. H3375+1 “Complete Tablet” to 100 ml, Roche Diagnostics, order no. 1836145) in the ratio 1:20 (brain weight/volume) and differential centrifuging at 900×g and 40,000×g. 450 μg of protein from brain homogenate are incubated in 250 μl incubation preparation in 96-well microtiter plates, for 60 minutes at room temperature in a buffer (as above), along with 5 nM ^3[H]-MPEP (Tocris, order no. […]
Subsequently, the preparations are filtered on unifilter plates with fibreglass filter mats (Perkin Elmer, order no. 6005177) using a Brandel Cell Harvester (Brandel, TYP Robotic 9600) and subsequently washed with buffer (as above) 3 times with 250 μl per sample in each case. The filter plates are subsequently dried for 60 min at 55° C. Subsequently 30 μl Ultima Gold™ scintillator (Packard Bioscience, order no. 6013159) are added to each well, and after 3 hours the samples are measured with the β-counter (Mikrobeta, Perkin Elmer). The non-specific binding is determined by adding 10 μM MPEP (Tocris, order no. 1212).

T1 sequence (I3LUI7 19-1212): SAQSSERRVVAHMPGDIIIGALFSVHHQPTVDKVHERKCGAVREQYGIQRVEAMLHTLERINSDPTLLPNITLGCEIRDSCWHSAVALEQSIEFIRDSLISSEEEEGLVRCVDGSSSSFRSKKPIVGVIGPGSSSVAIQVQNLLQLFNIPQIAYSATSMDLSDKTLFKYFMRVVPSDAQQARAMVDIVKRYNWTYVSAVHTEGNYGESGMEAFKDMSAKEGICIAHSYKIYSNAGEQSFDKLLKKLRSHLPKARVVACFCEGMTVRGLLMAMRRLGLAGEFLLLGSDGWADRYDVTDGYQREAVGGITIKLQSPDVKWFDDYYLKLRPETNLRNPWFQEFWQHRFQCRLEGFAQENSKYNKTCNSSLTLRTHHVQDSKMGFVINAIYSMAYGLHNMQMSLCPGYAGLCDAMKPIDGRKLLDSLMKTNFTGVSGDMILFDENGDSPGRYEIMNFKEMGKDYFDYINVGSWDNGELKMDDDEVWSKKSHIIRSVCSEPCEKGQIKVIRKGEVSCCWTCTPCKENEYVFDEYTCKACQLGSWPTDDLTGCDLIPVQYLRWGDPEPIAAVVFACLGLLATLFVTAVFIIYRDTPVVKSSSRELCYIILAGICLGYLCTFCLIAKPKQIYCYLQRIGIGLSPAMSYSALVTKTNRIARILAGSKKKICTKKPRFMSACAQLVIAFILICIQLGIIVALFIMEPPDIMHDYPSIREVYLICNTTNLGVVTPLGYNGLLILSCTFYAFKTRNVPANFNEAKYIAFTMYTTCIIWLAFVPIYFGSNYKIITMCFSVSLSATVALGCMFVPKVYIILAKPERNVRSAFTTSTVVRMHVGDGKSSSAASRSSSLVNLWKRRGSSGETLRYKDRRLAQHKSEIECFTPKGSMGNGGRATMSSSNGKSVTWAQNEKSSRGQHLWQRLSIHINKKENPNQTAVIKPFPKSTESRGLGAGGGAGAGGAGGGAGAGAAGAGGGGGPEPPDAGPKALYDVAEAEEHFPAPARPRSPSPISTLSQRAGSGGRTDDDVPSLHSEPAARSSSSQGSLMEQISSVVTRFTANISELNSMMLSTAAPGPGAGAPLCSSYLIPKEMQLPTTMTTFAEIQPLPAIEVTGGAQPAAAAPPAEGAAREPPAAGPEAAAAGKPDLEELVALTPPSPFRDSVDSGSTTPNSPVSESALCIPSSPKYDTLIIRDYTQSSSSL

Row | IC50 | Compound
1 | 7.41 µM | O=C(C#Cc1ccccc1)NC1CCN(c2nccs2)CC1 [Example 5, 3-phenyl-N-(1-(thiazol-2-yl)piperidin-4-yl)propiolamide]
2 | 3.04 µM | O=C(C#Cc1ccccc1)N1CCC(Nc2nccs2)CC1 [Example 2, 4-(thiazol-2-yl-amino)-1-(3-phenyl-propiolyl)piperidine]
3 | 0.99 µM | CN(CCCN(C)c1nccs1)C(=O)C#Cc1ccccc1 [Example 1]
4 | 4.46 µM | O=C(C#Cc1ccccc1)N1CC2CN(c3nccs3)CC2C1 (stereo not drawn) [Example 3, 3-(thiazol-2-yl)-7-(3-phenyl)-propiolyl-3,7-diaza-bicyclo[3.3.0]octane]
5 | 4.22 µM | CN(c1nccs1)C1CCN(C(=O)C#Cc2ccccc2)CC1 [Example 4, 4-(methyl-thiazol-2-yl-amino)-1-(3-phenyl-propiolyl)piperidine]
6 | 1 µM | CN(C(=O)C#Cc1ccccc1)C1CCN(c2nccs2)CC1 [Example 6, N-methyl-3-phenyl-N-(1-(thiazol-2-yl)piperidin-4-yl)propiolamide]

Same assay, conditions: 1 μM test compound, 5 nM [3H]-MPEP, 60 min, room temperature, read-out: % inhibition of mGluR5 receptor (pig) [3H]-MPEP bonding at 1 μM

Row | inhibition at 1 µM | Compound
7 | 79% | Cc1cccc(C#CC(=O)NC2CCN(c3nc(C)cs3)CC2)c1 [Example 22, N-(1-(4-methyl-thiazol-2-yl)piperidin-4-yl)-3-(3-tolyl)-propiolamide]
8 | 26% | COc1cccc(C#CC(=O)NC2CCN(c3nc(C)cs3)CC2)c1 [Example 11, N-(1-(4-methyl-thiazol-2-yl)piperidin-4-yl)-3-(3-methoxyphenyl)-propiolamide]
9 | 22% | Cc1csc(N2CCC(NC(=O)C#Cc3ccccc3F)CC2)n1 [Example 16, 3-(2-fluoro-phenyl)-N-(1-(4-methyl-thiazol-2-yl)piperidin-4-yl)-propiolamide]
10 | 36% | Cc1csc(N2CCC(NC(=O)C#Cc3ccccc3)CC2)n1 [Example 10, N-(1-(4-methyl-thiazol-2-yl)piperidin-4-yl)-3-phenyl-propiolamide]
11 | 32% | Cc1csc(N2CCC(NC(=O)C#Cc3cccc(C(F)(F)F)c3)CC2)n1 [Example 21, N-(1-(4-methyl-thiazol-2-yl)piperidin-4-yl)-3-(3-trifluoromethyl-phenyl)-propiolamide]
12 | 39% | Cc1csc(N2CCC(NC(=O)C#Cc3ccc(C)c(F)c3)CC2)n1 [Example 20, 3-(3-fluoro-4-methyl-phenyl)-N-(1-(4-methyl-thiazol-2-yl)piperidin-4-yl)-propiolamide]
